Experimental data reported in patent publication US20260130894A1, “COMPOSITION COMPRISING ISOQUINOLINE DERIVATIVE AS ACTIVE INGREDIENT FOR PREVENTION OR TREATMENT OF PARKINSON'S DISEASE” (ALTMEDICAL CO., LTD., priority 2022, published 2026).

Experiments:
[1] = tested on: mitochondrial membrane potential; assay: Mitochondrial membrane potential, TMRM assay; format: cell-based; conditions: CD1-012 10 μM or 15 μM, CCCP 10 μM, 24 hours (FIG. 6)
Method: (§1) It was confirmed whether the isoquinoline derivative according to the present invention induces mitochondrial dysfunction, similar to CCCP. To this end, the CD1-012 (10 μM or 15 μM) and CCCP (10 μM) were treated for 24 hours, and the mitochondrial membrane potential and mitochondrial reactive oxygen species (ROS) levels in each sample were analyzed. Mitochondrial membrane potential was analyzed using the TMRM (tetramethylrhodamine methyl ester) assay, and mitochondrial ROS levels were analyzed using the MitoSOX assay.

BEAS-2B cell line [2] = assay: Autophagy activity in BEAS-2B cells expressing Keima (confocal microscope); format: cell-based, human; conditions: 15 μM, 18 hours (FIG. 4B)
Method: (§2) It was confirmed whether CD1-012 synthesized in Example 1 specifically increases only mitophagy activity. To this end, the BEAS-2B cell line expressing mt-Keima was treated with CD1-012 (15 μM) or Comparative Example 1 (CCCP, 10 μM) for 18 hours, and mitophagy activity was analyzed using a confocal microscope. Additionally, to measure autophagy activity, the BEAS-2B cell line expressing Keima fluorescent protein was incubated in Hanks' balanced salt solution (HBSS) for 3 hours to induce a starvation condition (starv.), and the results were compared with samples treated with CD1-012 (15 μM) for 18 hours using a confocal microscope.

[3] = tested on: PINK1-deficient Drosophila (B9); assay: Mitochondrial function in Drosophila model of Parkinson's disease; format: in vivo
Method: In this example, to further verify the effect of the compound of the present invention (CD1-012) on improving mitochondrial dysfunction, a Drosophila model of Parkinson's disease was used. To this end, after administering CD1-012 to PINK1 gene-deficient Drosophila, mitochondrial function was analyzed. […] As a result, the number of damaged mitochondria (with abnormally swollen morphology) observed in the PINK1-deficient Drosophila was reduced in the CD1-012-treated group as compared to an untreated control (FIG. 9A). […] In addition, after 2 weeks of CD1-012 administration, it could be observed that the ATP production capacity of the brain tissue of the PINK11-deficient Drosophila was restored (FIG. 9C).

[4] = tested on: BEAS-2B cell line, in which PINK1 was knocked down; assay: Mitophagy activity in PINK1 knockdown (shPINK1) BEAS-2B cells (FACS); format: cell-based, human
Text: In this example, it was confirmed whether the mitophagy activation function of the isoquinoline derivative according to the present invention is dependent on the PINK1-Parkin pathway. […]
In the following example, it was confirmed whether the novel isoquinoline derivative according to the present invention has a therapeutic effect of preventing or improving Parkinson's disease. Most of all, it was confirmed whether the treatment with the isoquinoline derivative improves mitochondrial dysfunction of a Parkinson's disease cell model. To this end, first, the induction of mitophagy by CD1-012 was verified. […] In addition, to analyze whether the mitophagy-promoting activity of CD1-012 is dependent on PINK1, PINK1 expression was inhibited (using shPNIK1) in BEAS-2B cells, which is a human normal lung cell line expressing a mitochondrial fluorescent protein, and mitophagy activity was analyzed by flow cytometry (FACS).

[5] = tested on: mitochondrial reactive oxygen species (ROS); assay: Mitochondrial reactive oxygen species, MitoSOX assay; format: cell-based; conditions: CD1-012 10 μM or 15 μM, CCCP 10 μM, 24 hours (FIG. 6)
Method: as §1

[6] = tested on: wild type (WT) and PINK1-deficient (PINK1−/−) mouse embryonic fibroblasts (MEFs); assay: Mitochondrial protein Cox2 level by western blotting in WT and PINK1-deficient MEFs; format: cell-based; conditions: 40 μM, 24 hours (FIG. 8A)
BEAS-2B cell line [7] = assay: Mitophagy activity in BEAS-2B cells expressing mt-Keima (FACS, confocal microscope, mito-YFP); format: cell-based, human
Method: To analyze the mitophagy-promoting activity effect of the CD1-012 synthesized in the Example 1, the BEAS-2B cell line, which is a human normal lung cell line, was induced to express the mt-Keima fluorescent protein. Following this, the CD1-012 (15 μM) and the compound of Comparative Example 1, CCCP (10 μM), were treated for 24 hours. After the treatment, the mitophagy activity of each sample was measured, and the results were represented in FIGS. 1A to 1C.
Specifically, FIG. 1A represents the analysis results using flow cytometry (FACS) (treatment of CD1-012 at 15 μM for 24 hours), FIG. 1B represents the analysis results using a confocal microscope (treatment of CD1-012 at 15 μM for 18 hours), and FIG. 1C represents the measurement results of the quantitative changes in the mitochondria using a fluorescent protein, mito-YFP, which includes a targeting sequence to transport protein to the mitochondria (treatment of CD1-012 at 20 μM for 24 hours).
It was confirmed whether CD1-012 synthesized in Example 1 promotes mitophagy activity in a concentration- and time-dependent manner. To this end, the CD1-012 was treated at various concentrations or at a fixed concentration (15 μM) for different treatment durations in the BEAS-2B cell line expressing mt-Keima, and mitophagy activity was measured using a flow cytometer.
as §2
To this end, the human normal lung cell line BEAS-2B, expressing mt-Keima fluorescent protein, was treated with CD1-012, Comparative Example 2 (palmatine), or Comparative Example 3 (berberine) at various concentrations, and the mitophagy-inducing activity of each sample was compared.

HeLa-Parkin cell line = assay: Mitophagy activity in HeLa-Parkin cells (FACS); format: cell-based, human; conditions: FACS (FIG. 2B)
Method: It was confirmed whether CD1-012 synthesized in Example 1 increases mitophagy activity in various cell lines. To this end, CD1-012 and Comparative Example 1 (CCCP) were treated in the SH-SY5Y cell line, a human neuroblastoma cell line expressing mt-Keima fluorescent protein, and in the HeLa-Parkin cell line, a HeLa cervical cancer cell line expressing Parkin (E3 ligase). Following this treatment, the mitophagy activity of each sample was analyzed using flow cytometry (FACS), and the results are shown in FIGS. 2A to 2B.

[8] = tested on: dopaminergic neurons in the substantia nigra; assay: Number of dopaminergic neurons in substantia nigra of MPTP mouse model (TH immunochemical staining); format: in vivo; conditions: MPTP mice administered CD1-012, TH staining (FIGS. 13A and 13B)
Method: Subsequently, it was confirmed whether CD1-012 administration can inhibit dopaminergic neuron death in the substantia nigra of the animal model of Parkinson's disease. To this end, the number of dopaminergic neurons was measured by performing TH immunochemical staining on the substantia nigra of the mice undergoing the behavioral experiment in Example 4.

Structure (SMILES): Oc1cc2c(cc1O)-c1cc3ccc(O)c(O)c3c[n+]1CC2 [CD1-012, 2,3,9,10-tetrahydroxy-5,6-dihydroisoquinolino[3,2-a]isoquinolin-7-ium bromide]
- mitochondrial membrane potential [1]: no decrease in mitochondrial membrane potential was observed
- autophagy activity compared to the untreated control group (BEAS-2B cell line [2]): no significant difference in autophagy activity
- mitochondrial ROS in brain tissue (DCF-DA staining) ([3]; 1 mM for 2 weeks (FIG. 9B)): significantly inhibited
- number of damaged mitochondria (abnormally swollen morphology) in dopaminergic neurons compared to untreated control ([3]; 1 mM for 2 weeks, brain tissue (FIG. 9A)): reduced
- ATP production capacity of brain tissue ([3]; 2 weeks of administration (FIG. 9C)): restored
- mitophagy-promoting activity compared with CCCP (10 μM) ([4]; 20 μM, BEAS-2B, FACS (FIG. 8B)): mitophagy-promoting activity at a level similar to that of CCCP
- mitophagy-promoting activity when PINK1 gene expression was inhibited ([4]; 20 μM, shPINK1 BEAS-2B, FACS (FIG. 8B)): mitophagy-promoting activity was not inhibited
- mitophagy activation in PINK1 knockdown cell line (shPINK1) compared to control cell line (shNT) ([4]; CCCP 10 μM, CD1-012 15 μM, 18 hours (FIG. 7)): did not show a significant difference
- mitochondrial ROS levels [5]: no increase in mitochondrial ROS was detected
- Cox2 protein level [6]: significantly decreased
- treatment time after which mitophagy activity began to significantly increase (BEAS-2B cell line [7]; 15 μM (FIG. 3B)): 3 h
- treatment time at which mitophagy activity reached its maximum level (BEAS-2B cell line [7]; 15 μM (FIG. 3B)): 18 h
- concentration at which mitophagy activity reached a level comparable to the maximum of palmatine and berberine (BEAS-2B cell line [7]; BEAS-2B mt-Keima (FIG. 5)): 10 µM
- mitophagy-inducing activity relative to berberine (BEAS-2B cell line [7]; BEAS-2B mt-Keima (FIG. 5)): approximately 8 times
- mitophagy-inducing activity relative to palmatine (BEAS-2B cell line [7]; BEAS-2B mt-Keima (FIG. 5)): approximately 40 times
- concentration at which mitophagy activity began to significantly increase compared to untreated control (BEAS-2B cell line [7]; BEAS-2B mt-Keima, flow cytometer (FIG. 3A)): ≥ 7.5 µM
- mitophagy activity compared to the untreated control group (Con) (BEAS-2B cell line [7]; BEAS-2B mt-Keima, 15 μM 24 h (FACS), 15 μM 18 h (confocal), 20 μM 24 h (mito-YFP)): significant increase in mitophagy activity
- mitophagy-promoting effect compared with CCCP (confocal microscope) (BEAS-2B cell line [7]; CD1-012 15 μM, CCCP 10 μM, 18 hours (FIG. 4A)): mitophagy-promoting effects similar to those observed in the CCCP-treated sample
- mitophagy activity compared with CCCP-treated sample (FIG. 1A) (BEAS-2B cell line [7]; FACS, CD1-012 15 μM, CCCP 10 μM, 24 hours): increased as significantly as that of the sample treated with the representative mitophagy promoting compound, CCCP
- concentration dependence of mitophagy activity (BEAS-2B cell line [7]; up to the maximum treatment concentration of 17.5 μM (FIG. 3A)): continued to increase in a concentration-dependent manner
- mitophagy activity compared to the control group (Con) (HeLa-Parkin cell line): significantly increased mitophagy activity
- number of dopaminergic neurons in substantia nigra [8]: restored to a level similar to the control
